We go through 48 compounds from patent US12338203B2 (TAISHO PHARMACEUTICAL CO., LTD., priority 2019, dated 2025).

Like-named read-outs stand apart in the source and are kept apart here.

The assay concerns the target T1, human LPAR1 (Homo sapiens, UniProt Q92633).
T1 construct: expressed in transfected cells
Nature of the assay: Test Example 1: antagonism against response of LPA-induced increase in intracellular Ca2+ concentration in RH7777 cells stably expressing human LPAR1. The format is cell-based. In short, it runs like this:
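RH7777 cells stably transfected with human LPAR1 were preincubated with test compound 30 min at 37 °C in HBSS/20 mM HEPES/probenecid/0.05% BSA buffer, pH 7.4, then LPA-stimulated.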

The mark [1] stands for this setting: RH7777 cells stably expressing human LPAR1, Fluo-4 fluorescence, FDSS6000, read-out: IC50 value (concentration producing 50% antagonism against response of LPA-induced increase in intracellular Ca2+ concentration) (converted).

T1 sequence (Q92633 whole entry): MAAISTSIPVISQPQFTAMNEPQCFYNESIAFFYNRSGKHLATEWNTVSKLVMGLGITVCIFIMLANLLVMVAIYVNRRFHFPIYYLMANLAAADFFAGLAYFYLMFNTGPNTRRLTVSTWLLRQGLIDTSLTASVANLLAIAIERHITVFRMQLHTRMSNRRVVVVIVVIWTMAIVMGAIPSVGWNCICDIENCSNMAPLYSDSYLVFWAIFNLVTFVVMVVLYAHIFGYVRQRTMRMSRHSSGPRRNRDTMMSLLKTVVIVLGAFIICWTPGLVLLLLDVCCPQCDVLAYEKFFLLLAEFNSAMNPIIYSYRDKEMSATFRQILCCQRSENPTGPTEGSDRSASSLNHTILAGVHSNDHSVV

As for `COc1cc([C@@H](C)N(CCO[C@@H](C)c2ccccc2)C(=O)NC2(C(=O)O)CC(OC)C2)cc(OC)c1C(C)=O` (stereo partly drawn) [Example 5-122], the IC50 under setting [1] is 30.3 nM. With `CCOc1cc(C(C)N(CCO[C@@H](C)c2ccccc2)C(=O)NC2(C(=O)O)CC(OCC)C2)c(Cl)c(OCC)c1C1CC1` (stereo partly drawn) [Example 5-216], the IC50 under setting [1] is 2.56 nM.

Take `CCOc1cc(C(C)N(CCCCc2ccccc2)C(=O)NC2CCC(C(=O)O)C2)cc(OCC)c1C(C)=O` (stereo not drawn) [Example 1-139]: the IC50 under setting [1] was 3.09 nM. For `CCNc1cc(C(C)N(CCCCc2ccccc2)C(=O)NC2(C(=O)O)CCC2)cc(OCC)c1C(C)=O` (stereo not drawn) [Example 5-103], under setting [1], the IC50 was 1.71 nM. The same measure, in the same setting: the result for `CCOc1cc([C@@H](C)N(CCCCc2ccccc2)C(=O)NC2(c3nnn[nH]3)CC(F)(F)C2)cc(OCC)c1C(C)O` (stereo partly drawn) [Example 10-9, N-{(1R)-1-[3,5-Diethoxy-4-(1-Hydroxyethyl)Phenyl]Ethyl}-N′-[3,3-Difluoro-1-(1H-Tetrazol-5-Yl)Cyclobutyl]-N-(4-Phenylbutyl) Urea] reads 4.69 nM; that for `CCOc1cc([C@@H](C)N(CCCCc2ccccc2)C(=O)NC2(C(=O)NS(C)(=O)=O)CC(F)(F)C2)cc(OCC)c1C(C)=O` [Example 7-1, 1-({[(1R)-1-(4-Acetyl-3,5-Diethoxyphenyl)Ethyl](4-Phenylbutyl) Carbamoyl}Amino)-3,3-Difluoro-N-(Methanesulfonyl)Cyclobutane-1-Carboxamide], 2.75 nM. Still for that read-out and setting: the result for `CCOc1cc(C(C)N(CCO[C@@H](C)c2ccccc2)C(=O)N[C@]2(C(=O)O)C[C@H](OCC)C2)cc(OCC)c1C(C)O` (stereo partly drawn) [Example 4-133] reads 5.7 nM. Regarding `CCOc1c(C)ccc([C@@H](C)N(CCOC(C)c2ccccc2)C(=O)NC2(C(=O)O)CC(F)(F)C2)c1C` (stereo partly drawn) [Example 4-168], under setting [1], the IC50 was 6.29 nM.

Turning to `CCOC1CC(NC(=O)N(CCOCc2ccccc2)C(C)c2cc(OC)c(C3CC3)c(OC)c2C)(C(=O)O)C1` (stereo not drawn) [Example 5-165], under setting [1], the IC50 is 2.05 nM. In the case of `CCOc1cc([C@@H](C)N(CCO[C@@H](C)c2ccccc2)C(=O)N[C@]2(C(=O)O)C[C@H](OC)C2)c(Cl)c(OCC)c1C(C)O` (single isomer, unassigned) [Example 5-60], the IC50 under setting [1] is 9.05 nM.

Regarding `CCOc1cc([C@@H](C)N(CCO[C@@H](C)c2ccccc2)C(=O)NC2(C(=O)O)CCOCC2)cc(OCC)c1C(C)O` (single isomer, unassigned) [Example 4-144], under setting [1], the IC50 is 8.19 nM. Still for that read-out and setting: the result for `CCOc1cc([C@@H](C)N(CCCCc2ccccc2)C(=O)NC2(C(=O)O)CC(F)(F)C2)c(Cl)c(OCC)c1C(C)=O` [Example 5-46] reads 1.36 nM; that for `CCOc1cc([C@@H](C)N(CCCCc2ccccc2)C(=O)NC2(C(=O)O)CCOCC2)cc(OCC)c1C` [Example 1-154], 11.3 nM.

Take `CCOc1cc(C(C)N(CCCCc2ccccc2)C(=O)NC2(C(=O)O)CC(F)(F)C2)cc(OCC)n1` (stereo not drawn) [Example 5-86]: the IC50 under setting [1] was 11 nM. Still for that read-out and setting: the result for `CCOc1cc([C@@H](C)N(CCCCc2ccccc2)C(=O)NC2(C(=O)O)CC(F)(F)C2)c(Cl)c(OCC)c1C(C)O` (single isomer, unassigned) [Example 5-53] reads 2.54 nM; that for `CCOc1cc([C@@H](C)N(CCCCc2ccccc2)C(=O)NC2(C(=O)O)CC2)cc(OCC)c1C(C)=O` [Example 1-16, 1-({[(1R)-1-(4-Acetyl-3,5-Diethoxyphenyl)Ethyl](4-Phenylbutyl) Carbamoyl}Amino)Cyclopropane-1-Carboxylic Acid], 2.23 nM; that for `CCOc1cc([C@@H](C)N(CCO[C@@H](C)c2ccccc2)C(=O)NC2(C(=O)O)CC2)c(C)c(OCC)c1C` [Example 5-75], 4.74 nM. Still for that read-out and setting: the result for `COc1cc(C(C)N(CCOCc2ccccc2)C(=O)NC2(C(=O)O)CCOCC2)c(Cl)c(OC)c1C1CC1` (stereo not drawn) [Example 5-175] reads 4.93 nM; that for `CCOc1cc(C(C)N(CCCCc2ccccc2)C(=O)NC2(c3nn[nH]n3)CC(OC)C2)cc(OCC)c1C(C)=O` (stereo not drawn) [Example 10-14], 5.08 nM. Take “Trans-1-[([(1R)-1-(4-Acetyl-2,6-Dichloro-3,5-Diethoxyphenyl)Ethyl]{2-[(1S)-1-Phenylethoxy]Ethyl}Carbamoyl)Amino]-3-Ethoxycyclobutane-1-Carboxylic Acid [Example 5-120]”: under setting [1], the IC50 is 11.1 nM.

Consider `CCOc1cc(C(C)N(CCCCc2ccccc2)C(=O)NC2(c3nc(=O)o[nH]3)CCCC2)cc(OCC)c1C` (stereo not drawn) [Example 9-1, N-[1-(3,5-Diethoxy-4-Methylphenyl)Ethyl]-N′-[1-(5-Oxo-2,5-Dihydro-1,2,4-Oxadiazol-3-Yl)Cyclopentyl]-N-(4-Phenylbutyl) Urea], for which the IC50 under setting [1] is 506 nM. On to `CCOc1cc(C(C)N(CCCCc2ccccc2)C(=O)NC2(C(=O)O)CC(F)(F)C2)cc(OCC)c1C1(O)CC1` (stereo not drawn) [Example 1-37], for which the IC50 under setting [1] is 3.45 nM.

Regarding `CCOc1c(C2CC2)ccc([C@@H](C)N(CCO[C@H](C)c2cccc(Cl)c2)C(=O)NC2(C(=O)O)CCC2)c1C` [Example 4-180], under setting [1], the IC50 is 6.22 nM.

For `CCOc1cc(C(C)N(CCOCc2ccccc2)C(=O)NC2(c3nn[nH]n3)CC(F)(F)C2)cc(OCC)c1C1CC1` (stereo not drawn) [Example 10-13], under setting [1], the IC50 is 3.17 nM. In the case of `COc1cc(C(C)N(CCOCc2ccccc2)C(=O)NC2(C(=O)O)CCC2)c(C)c(OC)c1C(C)=O` (stereo not drawn) [Example 5-134], under setting [1], the IC50 was 4.55 nM. Consider `CCOc1cc([C@@H](C)N(CCCCc2ccccc2)C(=O)NC2CCC(C(=O)O)C2)cc(OCC)c1C(C)=O` (stereo partly drawn) [Example 1-141], for which, under setting [1], the IC50 was 42.9 nM. Same read-out and setting: for `CCOc1cc([C@@H](C)N(CCCCc2ccccc2)C(=O)N[C@]2(C(=O)O)C[C@H](OC)C2)c(Cl)c(OCC)c1C(C)=O` [Example 5-49] the value was 3.88 nM. The same measure, in the same setting: for `CCOc1cc([C@@H](C)N(CCC2Cc3ccccc3C2)C(=O)NC2(C(=O)O)CC(F)(F)C2)cc(OCC)c1C` [Example 4-21, 1-({[(1R)-1-(3,5-Diethoxy-4-Methylphenyl)Ethyl][2-(2,3-Dihydro-1H-Inden-2-Yl)Ethyl]Carbamoyl}Amino)-3,3-Difluorocyclobutane-1-Carboxylic Acid] the value was 2.74 nM; for `CCOc1cc(C(CO)N(CCCCc2ccccc2)C(=O)NC2(C(=O)O)CC(F)(F)C2)cc(OCC)c1C(C)=O` (stereo not drawn) [Example 3-4, 1-({[1-(4-Acetyl-3,5-Diethoxyphenyl)-2-Hydroxyethyl](4-Phenylbutyl) Carbamoyl}Amino)-3,3-Difluorocyclobutane-1-Carboxylic Acid], 4.03 nM; for `CCOc1cc([C@@H](C)N(CCCCc2ccccc2)C(=O)NC2(C(=O)O)CCCCC2)cc(OCC)c1C` [Example 1-118], 42.8 nM. With `CCOc1cc([C@@H](C)N(CCC(F)(F)Cc2ccccc2)C(=O)N[C@]2(C(=O)O)C[C@@H](OCC)C2)c(C)c(OCC)c1C` [Example 5-80], under setting [1], the IC50 was 43.5 nM. On the same count and under the same terms, for `CCOc1cc(C(C)N(CCOC(C)c2ccccc2)C(=O)NC2(C(=O)O)CCC2)c(Cl)c(OCC)c1C(C)=O` (stereo not drawn) [Example 5-195] the value was 2.07 nM; for `CCOc1cc(C(C)N(CCCCc2ccccc2)C(=O)NC2(C(=O)O)CC(F)(F)C2)cc(COC)c1C` (stereo not drawn) [Example 1-74], 7.15 nM; for `COc1cc(C(C)N(CCOCc2ccccc2)C(=O)NC2(C(=O)O)CC(F)(F)C2)c(Cl)c(OC)c1C(C)=O` (stereo not drawn) [Example 5-143], 3.11 nM. Same read-out and setting: the result for `COc1cc(C(C)N(CCCCc2ccccc2)C(=O)NC2(C(=O)O)CC(F)(F)C2)cnc1C#N` (stereo not drawn) [Example 5-90] reads 143 nM; that for `CCOc1cc(C(C)N(CCCCc2ccccc2)C(=O)NC2(c3nn[nH]n3)CC2)cc(OCC)c1C(C)=O` (stereo not drawn) [Example 10-3], 1.9 nM; that for `CCOC(=O)C1(NC(=O)N(CCO[C@@H](C)c2ccccc2)C(C)c2cc(OCC)c(C(C)=O)c(OCC)c2Cl)CC(OCC)C1` (stereo partly drawn) [Example 6-10], 1040 nM. The same measure, in the same setting: for `CCOc1cc([C@@H](C)N(CCCCc2ccccc2)C(=O)NC2(C(=O)O)CCN(C(C)=O)CC2)cc(OCC)c1C` [Example 1-160] the value was 11.9 nM; for `CCOc1cc([C@@H](C)N(CCCCc2ccccc2)C(=O)NC2(C(=O)O)CCOCC2)cc(OCC)c1C1CC1` [Example 1-155], 0.997 nM; for `CCOc1cc(C(C)N(CCCCc2ccccc2F)C(=O)NC2(C(=O)O)CC(F)(F)C2)cc(OCC)c1C` (stereo not drawn) [Example 4-8], 8.87 nM. As to `CCOc1c(C(C)=O)ccc([C@@H](C)N(CCO[C@H](C)c2ccccc2)C(=O)NC2(C(=O)O)CC(F)(F)C2)c1C` [Example 4-151], the IC50 under setting [1] was 2.62 nM. Still for that read-out and setting: the result for `CCOc1cc(C(C)N(CCCCc2ccccc2)C(=O)NC2(C(=O)O)CC(F)(F)C2)cc(OCC)c1C(=O)OC` (stereo not drawn) [Example 1-60] reads 5.46 nM.

Consider `COc1cc(C(C)N(CCOCc2ccccc2)C(=O)NC2(C(=O)O)CC(F)(F)C2)cc(OC)c1C(C)=O` (stereo not drawn) [Example 5-141], for which the IC50 under setting [1] is 3.49 nM. In the case of `CCOc1cc([C@@H](C)N(CCCCc2cccc(OC)c2)C(=O)NC2(C(=O)O)CC(F)(F)C2)cc(OCC)c1C` [Example 4-18, 1-({[(1R)-1-(3,5-Diethoxy-4-Methylphenyl)Ethyl][4-(3-Methoxyphenyl)Butyl]Carbamoyl}Amino)-3,3-Difluorocyclobutane-1-Carboxylic Acid], under setting [1], the IC50 is 18.1 nM. Still for that read-out and setting: the result for `CCOc1cc(C(C)N(CCCCCc2ccccc2)C(=O)NC2(C(=O)O)CC(F)(F)C2)cc(OCC)c1C` (stereo not drawn) [Example 4-37] reads 30.6 nM. Same read-out and setting: the result for `CCOc1cc(C(C)N(CCCCc2ccccc2)C(=O)NC2(C(=O)O)CC(OCC)C2)c(Cl)c(OCC)c1C(C)=O` (stereo not drawn) [Example 5-50] reads 3.1 nM; that for `CCOc1cc([C@@H](C)N(CCCCc2ccccc2)C(=O)NC2(C(=O)O)COC2)cc(OCC)c1C(C)=O` [Example 1-149, 3-({[(1R)-1-(4-Acetyl-3,5-Diethoxyphenyl)Ethyl](4-Phenylbutyl) Carbamoyl}Amino) Oxetane-3-Carboxylic Acid], 2.24 nM. On to `COc1cc(C(C)N(CCCCc2ccccc2)C(=O)NC2(C(=O)O)CC(F)(F)C2)cc(OC)c1C` (stereo not drawn) [Example 1-66], for which the IC50 is 3.96 nM.
